Assay results from patent US8952157B2, “Apoptosis-inducing agents for the treatment of cancer and immune and autoimmune diseases” (AbbVie Inc., priority 2008, dated 2015).

Each compound was assayed against GST-Bcl-2 (Homo sapiens (Human), UniProt P10415) (assay: Time Resolved-Fluorescence Resonance Energy Transfer (TR-FRET) Bcl-2 binding assay). Settings: GST-Bcl-2 1 nM, F-Bak peptide probe 100 nM, Tb-anti-GST antibody 1 nM; Ki by Wang's equation.
In short: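 Competition TR-FRET: GST-Bcl-2 with fluorescent Bak peptide probe and Tb-anti-GST antibody, compounds serially diluted from 50 μM (2× start, 10% DMSO).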

Chain of GST-Bcl-2 (P10415 whole entry): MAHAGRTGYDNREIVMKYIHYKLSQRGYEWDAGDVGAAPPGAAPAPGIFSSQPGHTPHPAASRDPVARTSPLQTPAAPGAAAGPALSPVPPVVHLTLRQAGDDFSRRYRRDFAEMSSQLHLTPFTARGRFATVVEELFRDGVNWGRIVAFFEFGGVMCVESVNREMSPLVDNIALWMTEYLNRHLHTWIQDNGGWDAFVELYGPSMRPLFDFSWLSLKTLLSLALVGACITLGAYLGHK

Going from `CC1(C)CCC(CN2CCN(c3ccc(C(=O)NS(=O)(=O)c4ccc(NCC5CCC(F)(F)CC5)c([N+](=O)[O-])c4)c(Oc4cnc(N)c(Cl)c4)c3)CC2)=C(c2ccc(Cl)cc2)C1` [Example 396, 2-[(6-amino-5-chloropyridin-3-yl)oxy]-4-(4-{[2-(4-chlorophenyl)-4,4-dimethylcyclohex-1-en-1-yl]methyl}piperazin-1-yl)-N-[(4-{[(4,4-difluorocyclohexyl)methyl]amino}-3-nitrophenyl)sulfonyl]benzamide] to `CC1(C)CCC(CN2CCN(c3ccc(C(=O)NS(=O)(=O)c4ccc(N[C@@H]5CCN(CC(F)F)C5)c([N+](=O)[O-])c4)c(Oc4cnc(N)c(Cl)c4)c3)CC2)=C(c2ccc(Cl)cc2)C1` [Example 353, 2-[(6-amino-5-chloropyridin-3-yl)oxy]-4-(4-{[2-(4-chlorophenyl)-4,4-dimethylcyclohex-1-en-1-yl]methyl}piperazin-1-yl)-N-[(4-{[(3R)-1-(2,2-difluoroethyl)pyrrolidin-3-yl]amino}-3-nitrophenyl)sulfonyl]benzamide], the Ki rises from < 0.01 nM to 0.016 nM. The first binds more tightly here.

Going from `CCN(Cc1ccc(Oc2cc(N3CCN(Cc4ccccc4-c4ccc(Cl)cc4)CC3)ccc2C(=O)NS(=O)(=O)c2ccc(NCC3CCOCC3)c([N+](=O)[O-])c2)cc1)C(=O)OC(C)(C)C` [Example 78, tert-butyl 4-(5-(4-((4′-chloro-1,1′-biphenyl-2-yl)methyl)piperazin-1-yl)-2-((((3-nitro-4((tetrahydro-2H-pyran-4-ylmethyl)amino)phenyl)sulfonyl)amino)carbonyl)phenoxy)benzyl(ethyl)carbamate] to `O=C(NS(=O)(=O)c1ccc(NCCCN2CCOCC2)c([N+](=O)[O-])c1)c1ccc(N2CCN(Cc3ccccc3-c3ccc(Cl)cc3)CC2)cc1Oc1ccc(-c2ccncc2)cc1` [Example 99, 4-(4-((4′-chloro-1,1′-biphenyl-2-yl)methyl)piperazin-1-yl)-N-((4-((3-morpholin-4-ylpropyl)amino)-3-nitrophenyl)sulfonyl)-2-(4-pyridin-4-ylphenoxy)benzamide], the Ki falls from > 1200 nM to 71.4 nM.

First: CC1(C)CCC(CN2CCN(c3ccc(C(=O)NS(=O)(=O)c4ccc(OCC5(F)CCOCC5)c(S(=O)(=O)C(F)(F)F)c4)c(Oc4cnc(N)c(Cl)c4)c3)CC2)=C(c2ccc(Cl)cc2)C1 [Example 348, 2-[(6-amino-5-chloropyridin-3-yl)oxy]-4-(4-{[2-(4-chlorophenyl)-4,4-dimethylcyclohex-1-en-1-yl]methyl}piperazin-1-yl)-N-({4-[(4-fluorotetrahydro-2H-pyran-4-yl)methoxy]-3-[(trifluoromethyl)sulfonyl]phenyl}sulfonyl)benzamide]
Second: CC1(C)CCC(CN2CCN(c3ccc(C(=O)NS(=O)(=O)c4cnc(OCC5(F)CCN(C(CF)CF)CC5)c(C(F)(F)F)c4)c(Oc4cnc(N)c(Cl)c4)c3)CC2)=C(c2ccc(Cl)cc2)C1 [Example 405, 2-[(6-amino-5-chloropyridin-3-yl)oxy]-4-(4-{[2-(4-chlorophenyl)-4,4-dimethylcyclohex-1-en-1-yl]methyl}piperazin-1-yl)-N-{[6-({4-fluoro-1-[2-fluoro-1-(fluoromethyl)ethyl]piperidin-4-yl}methoxy)-5-(trifluoromethyl)pyridin-3-yl]sulfonyl}benzamide]
The Ki of the first is 11-fold higher: 3.78 nM for the first, 0.354 nM for the second.

For `CC1(C)CCC(CN2CCN(c3ccc(C(=O)NS(=O)(=O)c4ccc(NCCCN5CCNC(=O)C5)c([N+](=O)[O-])c4)c(Oc4ccccc4Cl)c3)CC2)=C(c2ccc(Cl)cc2)C1` [Example 254, 2-(2-chlorophenoxy)-4-(4-{[2-(4-chlorophenyl)-4,4-dimethylcyclohex-1-en-1-yl]methyl}piperazin-1-yl)-N-[(3-nitro-4-{[3-(3-oxopiperazin-1-yl)propyl]amino}phenyl)sulfonyl]benzamide], the Ki was 0.119 nM.
